# According to patent US4069317A, “N^2 -Arylsulfonyl-L-argininamides and the pharmaceutically acceptable salts thereof” (Mitsubishi Chemical Industries Ltd., priority 1974, dated 1978):
# Test system: mice
# Assay: acute toxicity (LD50), intraperitoneal administration in mice
# Type: in vivo
# Details: mice (male, 20 g)
# Excerpt: Representative LD50 values, for example, for N^2 -(6,7-dimethoxy-2-naphthylsulfonyl)-L-arginyl-N-butylalanine and N^2 -(4,6-dimethoxy-2-naphthylsulfonyl)-L-arginyl-N-cyclohexylmethylalanine are above 1,500 milligrams per kilogram each.
row,Compound,acute toxicity LD50
1,"CCCCN(C(=O)[C@H](CCCNC(=N)N)NS(=O)(=O)c1ccc2cc(OC)c(OC)cc2c1)[C@@H](C)C(=O)O [Sample 2, N^2-(6,7-dimethoxy-2-naphthylsulfonyl)-L-arginyl-N-butylalanine]","above 1,500 milligrams per kilogram"
2,"COc1ccc2cc(S(=O)(=O)N[C@@H](CCCNC(=N)N)C(=O)N(CC3CCCCC3)[C@@H](C)C(=O)O)cc(OC)c2c1 [Sample 12, N^2-(4,6-dimethoxy-2-naphthylsulfonyl)-L-arginyl-N-cyclohexylmethylalanine]","above 1,500 milligrams per kilogram"
3,"CCCCN(C)C(=O)[C@H](CCCNC(=N)N)NS(=O)(=O)c1cccc2c(N(C)C)cccc12 [N^2 -dansyl-N-methyl-N-butyl-L-argininamide, reference compound]",70 milligrams per kilogram
4,"CCCCNC(=O)[C@H](CCCNC(=N)N)NS(=O)(=O)c1cccc2c(N(C)C)cccc12 [N^2 -dansyl-N-butyl-L-argininamide, reference compound]",75 milligrams per kilogram

# Target: T1, thrombin (Bos taurus, UniProt P00735)
# T1 construct: purchased Mochida Pharmaceutical Co., Ltd
# Assay: fibrinogen coagulation time
# Type: biochemical
# Details: bovine fibrinogen, thrombin 5 units/ml, borate saline buffer pH 7.4, 25° C; control coagulation time 50-55 seconds
# Method: The measurement of the fibrinogen coagulation time was conducted as follows:
# Immediately after mixing, the reaction mixture was transferred from the ice bath to a bath maintained at 25° C. Coagulation times were taken as the period between the time of transference to the 25° C bath and the time of the first appearance of fibrin threads.
# The term "concentration required to prolong the coagulation time by a factor of two" is the concentration of an active ingredient required to prolong the normal coagulation time 50-55 seconds to 100-110 seconds.
row,Concentration required to prolong the coagulation time by a factor of two [µM],Compound
1,5,"COCCN(C(=O)[C@H](CCCNC(=N)N)NS(=O)(=O)c1ccc2cc(OC)c(OC)cc2c1)[C@@H](C)C(=O)O [Sample 15, N^2-(6,7-dimethoxy-2-naphthylsulfonyl)-L-arginyl-N-(2-methoxyethyl)alanine]"
2,2.5,"COc1cc2ccc(S(=O)(=O)N[C@@H](CCCNC(=N)N)C(=O)N(Cc3ccccc3)[C@@H](C)C(=O)O)cc2cc1OC [Sample 6, N^2-(6,7-dimethoxy-2-naphthylsulfonyl)-L-arginyl-N-benzylalanine]"
3,2,"COc1cc2ccc(S(=O)(=O)N[C@@H](CCCNC(=N)N)C(=O)N(C)[C@@H](Cc3ccccc3)C(=O)O)cc2cc1OC [Sample 18, N^2-(6,7-dimethoxy-2-naphthylsulfonyl)-L-arginyl-N-methylphenylalanine]"
4,1.5,"COc1cc2ccc(S(=O)(=O)N[C@@H](CCCNC(=N)N)C(=O)N(CCc3ccccc3)[C@@H](C)C(=O)O)cc2cc1OC [Sample 8, N^2-(6,7-dimethoxy-2-naphthylsulfonyl)-L-arginyl-N-phenethylalanine]"
5,2.0,"CCCCCN(C(=O)[C@H](CCCNC(=N)N)NS(=O)(=O)c1ccc2cc(OC)c(OC)cc2c1)[C@@H](C)C(=O)O [Sample 4, N^2-(6,7-dimethoxy-2-naphthylsulfonyl)-L-arginyl-N-pentylalanine]"
6,15,"CCC[C@H](NC(=O)[C@H](CCCNC(=N)N)NS(=O)(=O)c1ccc2cc(OC)c(OC)cc2c1)C(=O)O [Sample 21, N^2-(6,7-dimethoxy-2-naphthylsulfonyl)-L-arginylnorvaline]"
7,2.5,"COc1ccc2ccc(S(=O)(=O)N[C@@H](CCCNC(=N)N)C(=O)N(C)[C@@H](Cc3ccccc3)C(=O)O)cc2c1 [Sample 20, N^2-(7-methoxy-2-naphthylsulfonyl)-L-arginyl-N-methylphenylalanine]"

row,Compound,Concentration required to prolong the coagulation time by a factor of two [µM]
1,"COc1ccc2cc(S(=O)(=O)N[C@@H](CCCNC(=N)N)C(=O)N(CC3CCCCC3)[C@@H](C)C(=O)O)cc(OC)c2c1 [Sample 12, N^2-(4,6-dimethoxy-2-naphthylsulfonyl)-L-arginyl-N-cyclohexylmethylalanine]",4.5
